Assay results as given in ChEMBL document CHEMBL3507680, “University of Dundee, Gates Library screen for HepG2 cell viability”.

assay: Human HepG2 cell viability assay in 384 well format; type: toxicity, cell-based; set-up: dose 125 nL, time 70.5 hour; concentration not given beside the values; conditions: HepG2 cells, read-out: Inhibition

| Structure (SMILES) | cytotoxicity at 70.5 h [%] |
| --- | --- |
| COc1cccc(COCC(=O)NC2CCN(CC(N)=O)CC2)c1 | -5.13 |
| c1ccc(-n2ccc(CNC3CCc4ncnn4C3)n2)cc1 (centres undefined) | -5.75 |
| CNC(=O)[C@@H]1C[C@@H](n2cc(-c3ccc(Cl)cc3)nn2)CN1 | 13.9 |
| CCn1ncc(CN2CCN(C(=O)Cn3cc(Br)c(C)n3)CC2)c1C | -9.19 |
| CN(C)CCN1CCC(NC2CSCCc3ccccc32)CC1 (centres undefined) | -7.29 |
| CN(C)C(=O)c1n[nH]c2c1CN(Cc1ccccn1)CC2 | -3.26 |
| Nc1nc(Cn2ccnc2-c2cc(CN3CCCC3)cs2)cs1 | 3.17 |
| Cc1oncc1C(=O)N1CC[C@H]2[C@@H]1CCC(=O)N2c1cccnc1 | -14.4 |
| O=C(NCc1cc2n(n1)CCCNC2)C1(c2ccc(Cl)cc2)CCC1 | 1.64 |
| CCO[C@@H]1CO[C@@]2(CCN(Cc3ccc4c(c3)OCO4)C2)C1 | -17.3 |
| CC(SCC(=O)NCCC#N)c1ccc(Cl)cc1 (centres undefined) | -18.4 |
| Cc1cc(CNC(=O)CCc2ccc(S(N)(=O)=O)cc2)no1 | -11.1 |
| Cc1cc(CN2CCN(C(=O)NC(C)c3cccnc3)CC2)no1 (centres undefined) | -8.62 |
| O=C(CNc1cc(Br)ccc1Br)NC1CCS(=O)(=O)C1 (centres undefined) | -14.1 |
| O=C([C@H]1C[C@H]2OCC[C@H]2N(Cc2cccnc2)C1)N1CCCCO1 | -7.65 |
| COc1cc(N2C[C@H]3CN(CCN4CCCC4)C(=O)[C@H]3C2)ncn1 | -7.36 |
| CNC(=O)CN(C)C(=O)c1cc(Cl)c(Cl)n1C | 17.1 |
| c1nc(C2CCCCO2)ncc1CN1CCOCC1 (centres undefined) | -4.04 |
| Cc1cnn(C2CN(CC(O)COCc3ccc4c(c3)OCO4)C2)c1 (centres undefined) | -0.637 |
| Cc1cc(NC(=O)CN2CCCC2c2noc(C(C)C)n2)no1 (centres undefined) | 14.1 |
| Cc1nc(COC[C@@]23CCC[C@@H]2CN(Cc2nccs2)C3)cs1 | -7.37 |
| CCCn1nc2c(cc1=O)CN(CC(=O)Nc1ccncc1)CC2 | -17.2 |
| O=C1CCCC2=C1C(c1ccc(F)cc1F)Nc1nonc1N2 (centres undefined) | 12.1 |

| Structure (SMILES) | cytotoxicity at 70.5 h [%] |
| --- | --- |
| CNC(=O)c1cc2c(nc1NCC1CC1)CCN(c1ccncn1)CC2 | -24.6 |
| Cc1cc(C)nc(C2CCN(C3CCCCC3)C2)n1 (centres undefined) | -5.66 |
| CC(=O)c1ccc(NC(=O)c2ccc3c(c2)C2(CCCCC2)CN3)cc1 | -9.32 |
| CC(C)c1nccn1-c1cccc(C2CCCN(C3CCCC3)C2)n1 (centres undefined) | -12.4 |
| Cc1ccc(C(=O)NC2CCN(C(=O)Nc3ccccn3)CC2)o1 | 16.1 |
| CC(C)c1ncc2c(n1)CN(Cc1nc(-c3ccco3)no1)CC2 | -8.2 |
| CC(CNCc1ccc(Cl)cc1)Oc1ccccn1 (centres undefined) | -10 |
| CCC(C)C(=O)N(CC(=O)OC)c1cccc(C)n1 (centres undefined) | 2.47 |
| COc1nn(C)c2c1CCCN(C(=O)c1cscn1)C2 | 2.23 |
| CCC(CN1CCCC1)NC(=O)Cc1c(C)[nH]c2cc(C)cc(C)c12 (centres undefined) | -4.71 |
| O=C(CCC1CCCC1)NCc1nnc2ccccn12 | -10.1 |
| Cc1cc(C)cc(CNC(c2ccccc2)c2nccn2C)c1 (centres undefined) | 1.26 |
| O=C(N1CCCCC1)N1CCCC(c2ncncc2-c2ccncc2)C1 (centres undefined) | -8.3 |
| CN(CCC#N)C(=O)CN1CCC(c2cc3ccccc3[nH]2)CC1 | 4.21 |
| Cc1nn(C)cc1CN1CCCCCC1c1ccccc1Cl (centres undefined) | 17.7 |
| COCCC1COC2(CCN(C(C)=O)CC2)C1 (centres undefined) | -5.06 |
| CN1C[C@@H](C(=O)NC(C)(C)C)[C@@]2(CCc3ccccc3C(=O)N2)C1 | 0.823 |
| COc1c(C(=O)N2CCOC(c3cccs3)C2)c(C)nn1C (centres undefined) | -5.91 |
| O=C(NCC1CC1)C1CN(C(=O)c2cccnc2)CC12CCOCC2 (centres undefined) | -7.11 |
| Cn1c(CN2CCCC(N3CCNC3=O)C2)cc(=O)n(C)c1=O (centres undefined) | 26.4 |
| O=C(CCCc1cn[nH]c1)N1C[C@@H](CN2CCCCCC2)[C@@H](CO)C1 | -6.07 |
| Cc1ccc(CN2CCCC3(CCN(Cc4ccoc4)CC3)C2)cc1 | 15.4 |
| O[C@@H]1C[C@@H](c2nc(-c3ccccc3)no2)N(C2CCOCC2)C1 | -3.47 |

| Structure (SMILES) | cytotoxicity at 70.5 h [%] |
| --- | --- |
| Cn1cc(N2CCCC(Nc3ccc4c(c3)CCC(=O)N4)C2=O)cn1 (centres undefined) | 0.589 |
| O=C(c1ccc(F)c(F)c1)N1CCCC(Nc2ccc(F)cc2)C1 (centres undefined) | -5.1 |
| Cc1[nH]nc(CCC(=O)NCC2CCN(C3CCCCC3)C2)c1C (centres undefined) | -4.71 |
| CC(C)(C)C(=O)N1CCCC1c1nc(O)cc(-c2ccccn2)n1 (centres undefined) | -8.73 |
| Cc1noc(CN2CCN(CCO)CC2)n1 | -3.7 |
| CC(C)(C)c1c[nH]c([C@@H]2COCCN2C2CCC2)n1 | -4.17 |
| Cn1ccc(CN2CCN(CC3CC3)CC2)cc1=O | 21.6 |
| CCOc1ccccc1N1CCN(C(=O)NCc2cc[nH]n2)CC1 | 18.3 |
| COCCn1c(=O)n(C)c(=O)c2ccc(C3CCC(CN)CC3)nc21 (centres undefined) | -6.32 |
| CC(=O)NCCC(=O)NC(C)c1sc(-c2ccccc2F)nc1C (centres undefined) | -5.17 |
| COc1ccc(CC(=O)N2CCCC2Cn2cccn2)cc1F (centres undefined) | -9.94 |
| Cc1cccc(OC2(C(=O)O)CCN(C(=O)CCc3ccco3)CC2)c1 | 30.3 |
| Cc1cc(C(N)=O)ccc1NC(=O)c1nc(N2CCCC2)ncc1Cl | -4.63 |
| O=C(Nc1cc(-c2cccnc2)no1)C1CCCCC1 | -4.13 |
| CC(C)Cc1cc(C(=O)NCCn2nc3ccccn3c2=O)[nH]n1 | -3.87 |
| O=C(CS(=O)(=O)CC1CCCCC1)NC1CCCCNC1=O (centres undefined) | -14.4 |
| Cc1ccccc1-c1noc(CNc2ccc(F)cc2OCCO)n1 | 1.21 |
| CC(C)n1cnnc1CN(C)C(=O)c1cc(COc2ccccc2)[nH]n1 | 2.63 |
| O=C(c1ccco1)N1Cc2nccn2CC(Cn2ncccc2=O)C1 (centres undefined) | -6.66 |
| CCCc1cc(N2CCC(NC3CCS(=O)(=O)C3)CC2)nc(C)n1 (centres undefined) | -4.65 |
| CN(C)c1cc(CNC(=O)c2cc(F)ccc2F)ccn1 | 0.104 |
| CC(O)CN1CCN(Cc2cccc(C(=O)N(C)C)c2)CC1 (centres undefined) | -2.45 |
| CN(C)CC(=O)N1CCCCC1c1nc(N)ncc1-c1ccccc1 (centres undefined) | 5.62 |

| Structure (SMILES) | cytotoxicity at 70.5 h [%] |
| --- | --- |
| COC(=O)c1cccc(S(=O)(=O)Nc2ccc(F)c(C(N)=O)c2)c1 | 14.1 |
| CC(=O)N1CCC2(CC1)CN(C(C)=O)CC21CCNC1=O (centres undefined) | 16.2 |
| NC(=O)NCCC(=O)NCc1nn(-c2ccccc2)c2c1CCC2 | -16.4 |
| CN(C)Cc1nnc(C2CCCN(c3nccc4ccccc34)C2)n1C (centres undefined) | -12.2 |
| O=C(CCn1cccn1)N1CCC(C2CCN(c3ncccn3)CC2)C1 (centres undefined) | -6.6 |
| O=C(Nc1ccc(-c2csnn2)cc1)N1CCCC1 | -11.8 |
| Cc1cc(C(=O)N2CCC3(CC2)C(=O)N(C)CCN3CC(C)C)c(C)o1 | -10.1 |
| CCCc1nnsc1C(=O)NCC1CCN(c2ccccn2)CC1 | -6.19 |
| CC(C)C(=O)Nc1cccc(CNC(=O)CSCc2ccccn2)c1 | -11.7 |
| O=C(NC(CO)CO)c1coc(COc2cccc(F)c2)n1 | -13 |
| O=C(CCn1c(=O)oc2ccccc21)NCC(O)c1ccccc1 (centres undefined) | -3.91 |
| COCC(=O)N1CCC(c2n[nH]c3nccnc23)CC1 | -7.45 |
| O=C(NCc1nncn1-c1ccccc1)C1CCCCC1 | -0.117 |
| CNS(=O)(=O)c1ccc(CNC(=O)C2CCCN(C)C2)cc1 (centres undefined) | -6.65 |
| Cc1ccc(C(=O)N2CCc3c(COCC4CC4)cncc3C2)o1 | 18.4 |
| Cc1ccc2cccc(S(=O)(=O)N(C)CC3CCN(C)C3)c2n1 (centres undefined) | -0.784 |
| O=C1[C@@H]2CCN(C3CCOCC3)C[C@@H]2OCCN1Cc1cccnc1 | -16 |
| COCC1CN(Cc2ccoc2)Cc2nnn(C)c21 (centres undefined) | -13.7 |
| Cc1nc(N2C[C@@H](CN3CCCN(C)CC3)[C@@H](CO)C2)c2ccsc2n1 | 11.6 |
| CCCOc1ccccc1C(N)CC(C)C (centres undefined) | -9.52 |
| CC(Cn1cccn1)NC(=O)c1ccsc1 (centres undefined) | -11.4 |
| CNC(=O)Nc1cc(-c2ccc(Br)cc2)nn1CCO | -0.486 |
| CN(C)C(=O)NC1COC2(CCN(C(=O)Nc3ccccc3)CC2)C1 (centres undefined) | 7.49 |

| Structure (SMILES) | cytotoxicity at 70.5 h [%] |
| --- | --- |
| CCNC(=O)Nc1cccc(F)c1C(=O)NC1CCCC1 | -6.92 |
| CN(Cc1ccccc1OC(F)(F)F)C(=O)C1CC1 | -7.05 |
| CCOC(=O)N1CCN(c2nc(NCCO)c3ccccc3n2)CC1 | -9.59 |
| COc1ccc(CC(=O)NC2(C#N)CCOCC2)c(Cl)c1 | 3.22 |
| CCOC(=O)N1CCCn2nc(C(=O)NCCN(C)C)cc2C1 | -6.9 |
| CCC(CC)C(O)CNC(=O)Nc1cc(C)nn1C (centres undefined) | -17.8 |
| CCOC1COC2(CCN(Cc3cccnc3OC)CC2)C1 (centres undefined) | -1.38 |
| CN(C)Cc1cn(CC2CCCN(c3nccc4occc34)C2)nn1 (centres undefined) | -14.2 |
| COc1cccc(-c2n[nH]cc2CNC2CCC(O)CC2)c1 (centres undefined) | -15.9 |
| CC(C)CC(=O)NCCCc1cc(N)n(-c2ccccc2)n1 | 4.65 |
| Cc1ccc(CN2CC[C@H]3OCC[C@@H](C(=O)NCC4CC4)[C@@H]3C2)o1 | -5.45 |
| CCOc1cc(C(=O)N2CCCC(c3noc(CC)n3)C2)ccn1 (centres undefined) | -2.83 |
| COc1ccc2nnc(CCC(=O)Nc3nc(C)c(C)s3)n2n1 | -9.75 |
| N[C@@H]1c2ccccc2C2(CCN(c3cc(C(F)(F)F)ccn3)CC2)[C@H]1O | 39.4 |
| COc1cccc(-c2noc(-c3ccc(N4CC(N)C4)nc3)n2)c1OC | -0.582 |
| CCCc1nc(CN(CC)C(=O)c2ccc(S(C)(=O)=O)cc2)no1 | -8.4 |
| COCCOCC(=O)Nc1ccnn1-c1ccc(Cl)cc1 | -0.967 |
| O=C(CN1C(=O)CCC1=O)N1CCOCC1 | 48.6 |
| COCc1cccc(CNC(=O)c2c(C)noc2C(C)C)c1 | 10.6 |
| CO[C@H]1CCN(S(=O)(=O)N(C)C)[C@@H]2CN(Cc3cccnc3)C[C@H]12 | -5.31 |
| COc1c(CNC2CCCOc3ccccc32)c(C(C)C)nn1C (centres undefined) | -4.69 |
| Cc1noc(C)c1CN1CCc2nn(C(C)C)c(=O)cc2C1 | 38.6 |
